According to article PMC4277619, “Design, Synthesis and Cytotoxicity Evaluationof New 1,2-diaryl-4, 5, 6, 7-Tetrahydro-1H-benzo[d] Imidazolesas Tubulin Inhibitors” (Iranian Journal of Pharmaceutical Research : IJPR, 2015):

Tests used:
HEPG2 = assay: MTT assay, cytotoxicity against HEPG2 liver carcinoma cells; format: cell-based, human; conditions: for IC50: Homo sapiens, HEPG2 cells, 24 h incubation, MTT; for SI HEPG2: selectivity index = IC50 Fibroblast / IC50 HEPG2
Experimental: (§1) Fibroblast, MCF7 (human breast cancer), HEPG2 (human liver carcinoma), A549 (human lung cancer) and T47D (human breast cancer) cell lines were purchased from Pasteur Institute, Tehran, Iran. The cells were grown in RPMI1640 medium at 37 °C under 5% CO2 supplemented with 10% heat inactivated fetal bovine serum (FBS), 100 U/mL penicillin and 100 µg/mL streptomycin. Cell viability was evaluated using MTT method which is based on the reduction of 3-(4,5-dimethylthiazol-2-yl)-2,5-diphenyltetrazolium bromide (MTT) dye to purple formazan crystals by mitochondrial succinate dehydrogenase enzyme in living cells. The cells were seeded into 96-well plates at a concentration of 6000 cells/well and allowed to incubate for 24 h. The medium was then discarded and different concentrations of the test compounds dissolved in complete medium, were added to each well. After further incubation for 24 h at 37 °C, the medium was aspirated and 100 µL MTT (2 mg/mL) was added to the wells and incubated for 3 h at 37 °C. The produced formazan crystals were dissolved in 100 µL of DMSO. Plates were incubated for 20 min at 37 °C and the optical densities were read at 570 nm with a reference wavelength of 630 nm as background using a spectrophotometer plate reader (Infinite® M200, TECAN). Colchicine was used as positive control and DMSO as the solvent of the test compounds and its final concentration was less than 0.2%. IC50 was calculated by calibration curve using Prism software. All the tests were performed in triplicates.

T47D = assay: MTT assay, cytotoxicity against T47D breast cancer cells; format: cell-based, human; conditions: for IC50: Homo sapiens, T47D cells, 24 h incubation, MTT; for SI T47D: selectivity index = IC50 Fibroblast / IC50 T47D
Experimental: as §1

Fibroblast = assay: MTT assay, cytotoxicity against normal fibroblast cells; format: cell-based; conditions: Homo sapiens, 24 h incubation
Experimental: as §1

A549 = assay: MTT assay, cytotoxicity against A549 lung cancer cells; format: cell-based, human; conditions: for IC50: Homo sapiens, A549 cells, 24 h incubation, MTT; for SI A549: selectivity index = IC50 Fibroblast / IC50 A549
Experimental: as §1

MCF-7 = assay: MTT assay, cytotoxicity against MCF-7 breast cancer cells; format: cell-based, human; conditions: for IC50: Homo sapiens, MCF7, MCF-7 cells, 24 h incubation, MTT; for SI MCF-7: selectivity index = IC50 Fibroblast / IC50 MCF-7
Experimental: as §1

Q: With `COc1cc(-c2nc3c(n2-c2ccc(Cl)cc2)CCCC3)cc(OC)c1OC` [Compound 7e, 1-(4-Chlorophenyl)-2-(3,4,5-trimethoxyphenyl)-4,5,6,7-tetrahydro-1H-benzoimidazole] as the compound, how does the IC50 (HEPG2) read?
A: 15.6 µM

Q: And the “SI HEPG2” value (HEPG2)?
A: 3.46

Q: What about the IC50 (T47D) of the same compound?
A: 34.5 µM

Q: And the “SI T47D” value (T47D)?
A: 1.6

Q: And the IC50 (Fibroblast)?
A: 54 µM

Q: What about the melting point of the same compound?
A: 157 to 158 °C

Q: And the IC50 (A549)?
A: 87 µM

Q: And the “SI A549” value (A549)?
A: 0.62

Q: And the IC50 (MCF-7)?
A: 36.4 µM

Q: And the “SI MCF-7” value (MCF-7)?
A: 1.48

Q: With `COc1cc(-c2nc3c(n2-c2cccc(Cl)c2)CCCC3)cc(OC)c1OC` [Compound 7f, 1-(3-Chlorophenyl)-2-(3,4,5-trimethoxyphenyl)-4,5,6,7-tetrahydro-1H-benzoimidazole] as the compound, how does the IC50 (HEPG2) read?
A: 43.8 µM

Q: And the “SI HEPG2” value (HEPG2)?
A: 2

Q: And the IC50 (T47D)?
A: 58.6 µM

Q: What about the “SI T47D” value (T47D) of the same compound?
A: 1.5

Q: And the IC50 (Fibroblast)?
A: 87.3 µM

Q: And the IC50 (A549)?
A: > 100 µM

Q: And the IC50 (MCF-7)?
A: 77.9 µM

Q: What about the “SI MCF-7” value (MCF-7) of the same compound?
A: 1.12

Q: What does the source list for `COc1cccc(-n2c(-c3cc(OC)c(OC)c(OC)c3)nc3c2CCCC3)c1` [Compound 7b, 1-(3-Methoxyphenyl)-2-(3,4,5-trimethoxyphenyl)-4,5,6,7-tetrahydro-1H-benzoimidazole]?
A: IC50 (HEPG2): > 100 µM; IC50 (T47D): > 100 µM; IC50 (Fibroblast): > 100 µM; IC50 (A549): 30.4 µM; IC50 (MCF-7): > 100 µM

Q: With `COc1cc(-c2nc3c(n2-c2ccc(O)cc2)CCCC3)cc(OC)c1OC` [Compound 7c, 4-[2-(3,4,5-Trimethoxyphenyl)-4,5,6,7-tetrahydro-1H-benzoimidazole-1-yl]-phenol] as the compound, how does the IC50 (HEPG2) read?
A: 19.6 µM

Q: And the “SI HEPG2” value (HEPG2)?
A: 4.11

Q: And the IC50 (T47D)?
A: 41.2 µM

Q: And the “SI T47D” value (T47D)?
A: 2

Q: And the IC50 (Fibroblast)?
A: 80.8 µM

Q: What about the melting point of the same compound?
A: 259 to 260 °C

Q: What about the IC50 (A549) of the same compound?
A: > 100 µM

Q: And the IC50 (MCF-7)?
A: > 100 µM

Q: Which results are given for `COc1cc(-c2nc3c(n2-c2ccc(F)cc2)CCCC3)cc(OC)c1OC` [Compound 7d, 1-(4-Fluorophenyl)-2-(3,4,5-trimethoxyphenyl)-4,5,6,7-tetrahydro-1H-benzoimidazole]?
A: IC50 (HEPG2): 19.4 µM; SI HEPG2 (HEPG2): 3.06; IC50 (T47D): 30 µM; SI T47D (T47D): 2; IC50 (Fibroblast): 59.5 µM; melting point: 152 to 154 °C; IC50 (A549): 86.5 µM; SI A549 (A549): 0.68; IC50 (MCF-7): 62.3 µM; SI MCF-7 (MCF-7): 0.95

Q: Which results are given for `COc1ccc(-n2c(-c3cc(OC)c(OC)c(OC)c3)nc3c2CCCC3)cc1` [Compound 7a, 1-(4-Methoxyphenyl)-2-(3,4,5-trimethoxyphenyl)-4,5,6,7-tetrahydro-1H-benzoimidazole]?
A: IC50 (HEPG2): 22.5 µM; SI HEPG2 (HEPG2): 1.26; IC50 (T47D): 41.1 µM; SI T47D (T47D): 0.69; IC50 (Fibroblast): 28.5 µM; melting point: 110 to 111 °C; IC50 (A549): 83.6 µM; SI A549 (A549): 0.34; IC50 (MCF-7): 54.8 µM; SI MCF-7 (MCF-7): 0.52
